# Assay results reported in patent publication US20060115538A1, “Calcium lactate and whey permeate for lowering the triglyceride level” (priority 2002, published 2006).
# Experiments:
# Type in all cases: in vivo
# WOK.W rat [1] = assay: Feeding trial in male WOK.W rats: plasma glucose; settings: 16 weeks old, after 12 weeks supplementation via drinking water, mean ± SEM, pathological threshold >8.4 mmol/l
# Text: (§1) Both pharmacological and nutrition-induced intervention trials on patients with an increased triglyceride level are above all time consuming, in order to detect changes of the metabolism, and require a high degree of discipline and motivation of the test persons or patients taking part in the studies. In part, these disadvantages can be lessened or eliminated by animal experiments, under the precondition that equivalent animal models are available. […] The specific properties of WOK.W rats are described, e.g., in: • P. Kovacs et al., Ann. N.Y. Acad. Sci., 1997, 827, 94-99; • P. Kovacs et al., Biochem. Biophsy. Res. Commun., 2000, 660-665; • J. van den Brandt et al., Int. J. Obesity, 2000, 24, 1618-1622; • J. van den Brandt et al., Metabolism 49, 2000, 1140-1144. […]
# (§2) Body weight, body length (for the calculation of the mody mass index, BMI), plasma glucose, and serum triglycerides were recorded every 2 weeks. […]
# (§3) Plasma glucose was measured enzymatically using a glucose analyzer. Lipid metabolism parameters were determined enzymatically with an automated analyzer for clinical chemistry, with kits (Boehringer Mannheim: triglycerides with TG GPO-PAP), according to the supplied instruction manuals. […]
# (§4) The results are represented as mean values ±SEM and the statistical significance was calculated using Student's t-test.
# WOK.W rat [2] = assay: Feeding trial in male WOK.W rats: serum triglycerides; settings: 16 weeks old, after 12 weeks supplementation via drinking water, mean ± SEM, pathological threshold >2.3 mmol/l, a: P < 0.01
# Text: as §1, §2, §3, §4
# WOK.W rat [3] = assay: Feeding trial in male WOK.W rats: body mass, BMI, pararenal adipose tissue; settings: 16 weeks old, after 12 weeks supplementation via drinking water, mean ± SEM
# Text: Both pharmacological and nutrition-induced intervention trials on patients with an increased triglyceride level are above all time consuming, in order to detect changes of the metabolism, and require a high degree of discipline and motivation of the test persons or patients taking part in the studies. In part, these disadvantages can be lessened or eliminated by animal experiments, under the precondition that equivalent animal models are available. […] The specific properties of WOK.W rats are described, e.g., in: • P. Kovacs et al., Ann. N.Y. Acad. Sci., 1997, 827, 94-99; • P. Kovacs et al., Biochem. Biophsy. Res. Commun., 2000, 660-665; • J. van den Brandt et al., Int. J. Obesity, 2000, 24, 1618-1622; • J. van den Brandt et al., Metabolism 49, 2000, 1140-1144.
# 31 male WOK.W rats (from 8 litters) were divided, at an age of 4 weeks, into 4 groups, such that one sibling was represented in each group. Group 1 (n=8 animals) was fed and watered ad libitum and served as an untreated control group. Group 2 (n=7 animals) received drinking water to which had been added whey permeate (25 g sweet whey permeate/1000 ml drinking water), a daily water requirement of 20 ml on average being assumed as the basis of the calculation. Group 3 (n=8 animals) received drinking water to which had been added calcium L-lactate (5,6 g calcium L-lactate/1000 ml drinking water), and group 4 (n=8 animals) received whey permeate and calcium L-lactate in identical concentrations. The treatment trial began at an age of 4 weeks, i.e. before the development of the most important symptoms of the metabolic syndrome, and continued for 12 weeks, until an age of 16 weeks.
# as §2, §4
compound,measurement,setting,value
"C[C@H](O)C(=O)[O-].C[C@H](O)C(=O)[O-].[Ca+2] [Calcium lactate, calcium L-lactate]",Blood sugar,WOK.W rat [1],6.10 ± 0.21 mmol/L
same,Triglyceride,WOK.W rat [2],3.88 ± 0.22 mmol/L
same,BMI,WOK.W rat [3],0.77 ± 0.01 g/cm^2
same,Body mass,WOK.W rat [3],394.3 ± 10.6 G
same,Adipose tissue,WOK.W rat [3]; pararenal adipose tissue,10.01 ± 0.71 G
